Results as given in patent publication US20130197027A1, “HETEROCYCLYL-AZABICYCLO[3.2.1]OCTANE ANALOGS AS SELECTIVE M1 AGONISTS AND METHODS OF MAKING AND USING SAME” (priority 2010, published 2013).
pEC50: −log10 of the molar value. Where two headings read alike, the source gives them in different places.

Target: T1, rM1 (Rattus norvegicus, UniProt P08482)
T1 construct: host or cells: CHO-K1
T1 sequence (P08482 1-460): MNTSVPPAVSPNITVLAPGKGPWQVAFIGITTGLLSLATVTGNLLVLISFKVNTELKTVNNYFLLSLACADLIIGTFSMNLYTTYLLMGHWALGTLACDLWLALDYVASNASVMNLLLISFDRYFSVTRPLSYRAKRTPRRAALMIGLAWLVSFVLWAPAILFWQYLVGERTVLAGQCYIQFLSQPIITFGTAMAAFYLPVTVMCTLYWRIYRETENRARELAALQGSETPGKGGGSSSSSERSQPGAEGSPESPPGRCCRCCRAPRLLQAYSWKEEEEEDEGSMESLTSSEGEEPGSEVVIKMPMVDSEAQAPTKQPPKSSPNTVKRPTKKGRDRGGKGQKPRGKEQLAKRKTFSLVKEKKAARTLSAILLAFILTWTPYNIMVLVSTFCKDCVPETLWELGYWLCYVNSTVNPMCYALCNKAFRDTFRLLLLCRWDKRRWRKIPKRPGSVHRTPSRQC
Test: Calcium mobilization assay in CHO-K1 cells stably expressing rat M1 (low throughput, Flexstation II)
Type: cell-based
Conditions: for Emax: RM1, read-out: Efficacy (% Max ACh)
Description: Chinese hamster ovary (CHO-K1) cells stably expressing rat (r) M1 were purchased from the American Type Culture Collection and cultured according to their indicated protocol. CHO cells stably expressing human (h)M2, hM3, and hM5 were described previously (Levey et al., 1991); hM1 and hM4 cDNAs were purchased from Missouri S&T cDNA Resource; rM4 cDNA was provided by T. I. Bonner (National Institutes of Health, Bethesda, Md.). hM1, hM4, and rM4 cDNAs were used to stably transfect CHO-K1 cells purchased from the American Type Culture Collection using Lipofectamine2000. To make stable hM2, hM4 and rM4 cell lines for use in calcium mobilization assays, these cells also were stably transfected with a chimeric G-protein (Gqi5) (provided by B. R. Conklin, University of California, San Francisco) using Lipofectamine 2000. rM1, hM3, and hM5 cells were grown in Ham's F-12 medium containing 10% heat-inactivated fetal bovine serum (FBS), 20 mM HEPES, and 50 μg/mL G418 sulfate. hM2-Gqi5 and hM4-Gqi5 cells were grown in the same medium also containing 500 μg/mL Hygromycin B. Stable rM4-Gqi5 cells were grown in DMEM containing 10% heat-inactivated FBS, 20 mM HEPES, 400 μg/mL G418 sulfate, and 500 μg/mL Hygromycin B. The rat M1 Y381A orthosteric mutant receptor cDNA was generated using the Quik-Change site-directed mutagenesis kit (Stratagene) and verified by sequencing. CHO-K1 cells were stably transfected with this cDNA using Lipofectamine2000 and screened for expression based on calcium mobilization in response to the allosteric M1 agonist N-desmethylclozapine.
For low throughput measurement of agonist-evoked increases in intracellular calcium, CHO-K1 cells stably expressing muscarinic receptors were plated in 100 μL of growth medium at 5×10^4 (rM1, hM3, and hM5) or 6×10^4 cells per well (rM1 Y381A, hM2, and rM4) in Costar 96-well black-walled, tissue culture (TC)-treated, clear-bottom plates (Fisher). Cells were incubated overnight at 37° C. and 5% CO2. The next day, medium was removed from the cells, and they were incubated with 50 μL of 2 μM Fluo-4/acetoxymethyl ester (Invitrogen, Carlsbad, Calif.) prepared as a 2.3 mM stock in DMSO and mixed in a 1:1 ratio with 10% (w/v) Pluronic F-127 and diluted in assay buffer [HBSS (Invitrogen) supplemented with 20 mM HEPES and 2.5 mM probenecid, pH 7.4] for 1 h at 37° C. and 5% CO2. Dye was removed and replaced with 50 μL of assay buffer. For calcium fluorescence measurements, CRCs of compounds (50 μl, 2×) were added 19 s after the beginning of data collection via a Flexstation II (Molecular Devices, Sunnyvale, Calif.). Fluorescence imaging continued for a total of 130 s acquisition time using an excitation wavelength of 488 nm, an emission wavelength of 525 nm, and a cutoff wavelength of 515 nm. All of the peaks of the calcium response were normalized to the response to a maximally effective concentration of ACh (ECmax). These normalized peak calcium response values were fit using GraphPad Prism version 4.0 to a four-parameter logistic equation to determine EC50 values.

Compound | pEC50 | Emax [%] | pEC50 (agonist-evoked calcium mobilization, CHO-K1 rM1 cells, read-out: rM1 Potency (EC50))
CCOC(=O)N1C2CCC1CC(N1CCC[C@@H](NC(=O)c3ccc(F)cc3)C1)C2 (stereo partly drawn) [Example 9, ethyl 3-((R)-3-(4-fluorobenzamido)piperidin-1-yl)-8-azabicyclo[3.2.1]octane-8-carboxylate] | 7.42 | 95 | 
CCOC(=O)N1C2CCC1CC(N1CCC[C@@H](NC(=O)c3cc(F)cc(F)c3)C1)C2 (stereo partly drawn) [Example 10, ethyl 3-((R)-3-(3,5-difluorobenzamido)piperidin-1-yl)-8-azabicyclo[3.2.1]octane-8-carboxylate] | 7.02 | 90 | 
CCOC(=O)N1C2CCC1CC(N1CCC[C@@H](NC(=O)c3cccc(C)c3)C1)C2 (stereo partly drawn) [Example 6, ethyl 3-((R)-3-(3-methylbenzamido)piperidin-1-yl)-8-azabicyclo[3.2.1]octane-8-carboxylate] | 7.39 | 94 | 
CCOC(=O)N1C2CCC1CC(N1CCC[C@@H](NC(=O)c3cc(Cl)ccc3F)C1)C2 (stereo partly drawn) [Example 11, ethyl 3-((R)-3-(5-chloro-2-fluorobenzamido)piperidin-1-yl)-8-azabicyclo[3.2.1]octane-8-carboxylate] |  | 65 | 6.23
CCOC(=O)N1C2CCC1CC(N1CCC[C@@H](NC(=O)c3ccc(F)c(C)c3)C1)C2 (stereo partly drawn) [Example 8, ethyl 3-((R)-3-(4-fluoro-3-methylbenzamido)piperidin-1-yl)-8-azabicyclo[3.2.1]octane-8-carboxylate] | 7.32 | 93 | 
CCOC(=O)N1C2CCC1CC(N1CCC[C@@H](NC(=O)c3ccc(F)cc3F)C1)C2 (stereo partly drawn) [Example 5, ethyl 3-((R)-3-(2,4-difluorobenzamido)piperidin-1-yl)-8-azabicyclo[3.2.1]octane-8-carboxylate] | 7.16 | 89 | 
